Results published in ChEMBL document CHEMBL3046276, “Preparation and activity study of new organophosphate insecticide candidates” (J Pestic Sci, 2011).
Converted amounts (≈) assume the structure as drawn.

Tests used:
[1] = Toxicity in Rattus norvegicus Sprague-Dawley (rat) assessed as mortality measured after 24 hr administered orally through force feeding method; assay type: organism-based; conditions: in vivo, po
Apolygus lucorum = assay: Insecticidal activity against Apolygus lucorum after 24 hr by larvae-dipping method; assay type: functional
Ostrinia furnacalis = assay: Insecticidal activity against Ostrinia furnacalis (Asian corn borer) after 24 hr by larvae-dipping method; assay type: functional
Pieris rapae = assay: Insecticidal activity against Pieris rapae after 24 hr by larvae-dipping method; assay type: functional
Chilo suppressalis = assay: Insecticidal activity against Chilo suppressalis (rice stem borer) fed on compound pre-treated rice leaves assessed as insect mortality measured after 3 days by leaf-dipping method; assay type: functional
Cnaphalocrocis medinalis = assay: Insecticidal activity against Cnaphalocrocis medinalis fed on compound pre-treated corn leaves assessed as insect mortality measured after 3 days by leaf-dipping method; assay type: functional
Helicoverpa zea [2] = assay: Insecticidal activity against Helicoverpa zea (corn earworm) fed on compound pre-treated cabbage leaves assessed as insect mortality measured after 24 hr by leaf-dipping method; assay type: functional
Helicoverpa zea [3] = assay: Insecticidal activity against Helicoverpa zea (corn earworm) fed on compound pre-treated cabbage leaves assessed as insect mortality measured after 48 hr by leaf-dipping method; assay type: functional

Structure (SMILES) | LD50 at 24 h [1] | LC50 (Apolygus lucorum) | LC50 (Ostrinia furnacalis) | LC50 (Pieris rapae) | LC50 (Chilo suppressalis) | LC50 (Cnaphalocrocis medinalis) | LC50 (Helicoverpa zea [2]) | LC50 (Helicoverpa zea [3])
CCOP(=S)(OC)O/N=C(\C#N)c1ccccc1 (racemic) | 1260 mg/kg | 0.00568 µg/mL (≈ 0.02 µM) | 0.0698 µg/mL (≈ 0.246 µM) | 0.00734 µg/mL (≈ 0.0258 µM) |  |  |  | 
CCOP(=S)(OC)Oc1nc(Cl)c(Cl)cc1Cl (racemic) | 147 mg/kg |  |  |  | 0.27 µg/mL (≈ 0.802 µM) | 1.06 µg/mL (≈ 3.15 µM) | 94.4 µg/mL (≈ 280 µM) | 46.3 µg/mL (≈ 138 µM)
CCOP(=S)(OCC)Oc1nc(Cl)c(Cl)cc1Cl [CHLORPYRIFOS] | 163 mg/kg |  |  |  | 2.61 µg/mL (≈ 7.44 µM) | 13.9 µg/mL (≈ 39.6 µM) | 390 µg/mL (≈ 1110 µM) | 63.9 µg/mL (≈ 182 µM)
CCOP(=S)(OCC)O/N=C(\C#N)c1ccccc1 [PHOXIM] | 1200 mg/kg | 0.00789 µg/mL (≈ 0.0264 µM) | 0.0853 µg/mL (≈ 0.286 µM) | 0.0088 µg/mL (≈ 0.0295 µM) |  |  |  | 
